Like-named read-outs stand apart in the source and are kept apart here.
Experiments:
[1] = tested on: PC-3 cells; test: XTT cell proliferation assay, cytotoxicity on PC-3 cells with and without electroporation; conditions: for cell susceptibility with electroporation / cytotoxic enhancement, rank order: combined with electroporation; for cytotoxicity enhancement ratio: IC50 no electroporation vs with electroporation
Protocol: PC-3 cells (ATCC CRL-1435, a prostate cancer cell line) were grown in RPMI-1640 supplemented with 15% fetal calf serum (FCS) and 1% L-glutamine in 5% CO2 at 37° C. Cells in the exponential phase of growth were harvested by trypsinization and their viability was determined by trypan blue exclusion. Cell were suspended in culture medium at 2×10^5 cells/ml and seeded in the wells of a 96-well plate at a final concentration of 4×10^4 cells per well. Cells were pulsed using appropriate needle array electrodes connected to a square wave pulse generator. The needle array was inserted in the well of the 96 well microplate and pulsed using the following parameters:
A cell survival curve was produced for the different electric fields.
Methods, 142:2, 257-265, 1991). The XTT assay is based on a spectrophotometric assay of the metabolic conversion of tetrazolium salts to formazan; living cells convert XTT to formazan, which can be measured spectrophotometrically. Results were expresses as a comparison of the lC50 (concentration of drug inhibiting 50% of the cells) of each agent in the presence and absence of clectroporation, and are presented in Table 1.

[2] = tested on: PC-3 cells; test: PC-3 tumors in nude mice, intratumoral bleomycin with or without electroporation; assay type: in vivo, nude mice; human prostate tumor (PC-3) cells; conditions: for death: deaths due to infighting
Protocol: In order to examine the effect of electroporation on the effectiveness of chemotherapeutic agents in vivo, a nude mouse model was utilized. For these experiments, 0.1 ml of a matrigel solution (a serum-free solution consisting of one part matrigel diluted in four parts RPMI-1640) containing 5×10^6 PC-3 cells was implanted on the flank of nude mice. The tumors were allowed to grow until a tumor volume of […]. The mice were weighed and randomly divided into six groups as follows:
Group 1: no chemotherapeutic agent, no electroporation
Group 2: 0.5 unit Bleomycin, no electroporation
Group 3: 0.5 units Bleomycin, 4 needle array, 0.65 cm, 942V, 4×100 μs pulses
Group 4: 0.5 units Bleomycin, 6 needle array, 1.00 cm, 1130 V, 6×100 μs pulses
Group 5: 0.5 units Bleomycin, 6 needle array, 0.50 cm, 559 V, 6×100 μs pulses
Group 6: 0.5 units Bleomycin, 4 needle array, 0.87 cm, 1500V, 4×100 μs pulses
In those animals which received Bleomycin, the chemotherapeutic agent (0.5 unit) was dissolved in 0.01 ml saline and injected intratumorally by "fanning." After 10±1 minutes, a Genetronics Medpulser™ device was used to pulse the tumors with a set of either 6 or 4-needle array electrodes. All treatments were given as a single set of pulses.
The animals were monitored daily for morality or any sign of disease for 67 days (see FIG. 24, where D=drug treatment (Bleomycin) and e=electroporation). Tumor size was measured and tumor volume calculated using the formula: […]
wherein a, b, and c are the length, width, and depth of the tumor in mm.
Following the monitoring period, the tumors were harvested and sections were prepared for histological analyses. Animals were classified as having progressive disease (appearance of new lesions not previously identified or having an estimated increase of 25% or more in existent lesion size), a complete response (complete disappearance of all known disease, a partial response (wherein the tumor size decrease 50% or more). Deaths were noted to be due to infighting of mice in the same cage.

[3] = tested on: prostate; test: Intraprostatic injection of Bleomycin with electroporation, tolerability, ECG and histology in dog; assay type: in vivo, male beagle dog
Protocol: In order to evaluate the technical feasibility of intraprostatic injection of Bleomycin, the following study was performed. A male beagle dog with a prostate size of >2 cm in diameter was anesthetized, A midline laparotomy was performed, and the bladder and gut reflected to visualize the prostate gland. Under direct visual guidance, Bleomycin was injected into each of six sextants (base, mid, and apex of both the left and right sides) of the prostate. Four electroporation needles were then inserted transperineally under visual guidance to administer the electroporation cycles. […] The ECG was recorded during each of the electroporation pulse sequences. The first two sequences were conducted with the needles inserted into the prostate, through the perineum. Four additional sequences were recorded with the needles inserted directly into the muscles of the left hindlimb. Each of the pulse sequences produced stimulation artifacts on the recording of the ECG.
The prostate was then excised and processed for histological evaluation.

[4] = partition coefficient between octanol and water; cited from earlier work
[5] = tested on: tumor cell; conditions: cited from earlier work
[6] = during electroporation pulse sequences

## N.N.[Cl][Pt][Cl] [Cisplatin]
[1]
  cell susceptibility with electroporation: electroporation enhances cell susceptibility
[1]; read-out: IC50 no electroporation, no electroporation, 20 hours after treatment
  IC50: 50 µM
[1]; read-out: IC50 with electroporation, with electroporation, 6 pulses, 99 μs, 400-600 V, 0.5 cm needle array, 20 hours after treatment
  IC50: 10 µM

## Bleomycin
[1]
  cytotoxicity enhancement ratio: 1000
  cell susceptibility with electroporation: electroporation enhances cell susceptibility
  cytotoxic enhancement, rank order: highest cytotoxic enhancement
[2]; Group 2: 0.5 unit Bleomycin, no electroporation, 6 animals, 67 days
  Progressive disease: 100%
[2]; Group 3: 0.5 units Bleomycin, 4 needle array, 0.65 cm, 942V, 4×100 μs pulses, 1 of 7 animals, 67 days
  partial response: 14%
[2]; Group 3: 0.5 units Bleomycin, 4 needle array, 0.65 cm, 942V, 4×100 μs pulses, 1 of 7 animals
  death: 14%
[2]; Group 3: 0.5 units Bleomycin, 4 needle array, 0.65 cm, 942V, 4×100 μs pulses, 5 of 7 animals, 67 days
  complete response: 52%
[2]; Group 4: 0.5 units Bleomycin, 6 needle array, 1.00 cm, 1130 V, 6×100 μs pulses, 1 of 7 animals, 67 days
  partial response: 14%
[2]; Group 4: 0.5 units Bleomycin, 6 needle array, 1.00 cm, 1130 V, 6×100 μs pulses, 1 of 7 animals
  death: 14%
[2]; Group 4: 0.5 units Bleomycin, 6 needle array, 1.00 cm, 1130 V, 6×100 μs pulses, 5 of 7 animals, 67 days
  complete response: 52%
[2]; Group 5: 0.5 units Bleomycin, 6 needle array, 0.50 cm, 559 V, 6×100 μs pulses, 1 of 6 animals, 67 days
  partial response: 17%
[2]; Group 5: 0.5 units Bleomycin, 6 needle array, 0.50 cm, 559 V, 6×100 μs pulses, 5 of 6 animals, 67 days
  complete response: 83%
[2]; Group 6: 0.5 units Bleomycin, 4 needle array, 0.87 cm, 1500V, 4×100 μs pulses, 1 of 8 animals, 67 days
  partial response: 12%
[2]; Group 6: 0.5 units Bleomycin, 4 needle array, 0.87 cm, 1500V, 4×100 μs pulses, 2 of 8 animals
  death: 25%
[2]; Group 6: 0.5 units Bleomycin, 4 needle array, 0.87 cm, 1500V, 4×100 μs pulses, 5 of 8 animals, 67 days
  complete response: 63%
[3]; [6]
  ECG, electrical rhythm of the heart: no effect on the electrical rhythm of the heart
  clinical disturbances of the cardiac rhythm: no clinical disturbances of the cardiac rhythm were observed
[3]; during the electroporation pulses
  muscular contractions: muscular contractions were observed
[3]; intraprostatic Bleomycin plus electroporation
  acute local or adverse reactions: No acute local or adverse reactions
[3]; intraprostatic Bleomycin plus electroporation, persisted for the duration of the study
  injection site finding: Small hematomas were evident at the injection site
[3]; one hour after electroporation
  gross examination of prostate, perineum and surrounding tissues: no findings except for the hematomas on the prostate surface
  necrosis of epithelial cells in the glandular portion of the prostate: Necrosis occurred in the epithelial cells
  necrosis of the supporting stroma: No necro-sis of the supporting stroma was observed
[3]; one hour after electroporation, multifocal in distribution pattern
  histological tissue findings in the prostate gland: hemorrhage, edema, and necrosis, which were mild in severity
[4]
  log P: very negative
[5]
  diffusion into a tumor cell: diffuse very slowly into a tumor cell
[5]; without electroporation
  penetration of the membranes of certain cancer cells: normally cannot penetrate the membranes of certain cancer cells effectively

## CO[C@@]12[C@H](COC(N)=O)C3=C(C(=O)C(C)=C(N)C3=O)N1C[C@@H]1N[C@@H]12 [Mitomycin C]
[1]; Homo sapiens, PC-3, 20 h, read-out: IC50 no electroporation
  IC50: 80 µM
[1]; Homo sapiens, PC-3, 20 h, read-out: IC50 with electroporation
  IC50: 60 µM
[1]
  cytotoxicity enhancement ratio: 1.33
  cytotoxic enhancement, rank order: followed by Cisplatin and Mitomycin C
